US20190225650A1, “PEPTIDOMIMETIC MACROCYCLES AND USE THEREOF IN REGULATING HIF1ALPHA” (AILERON THERAPEUTICS, INC., priority 2013, published 2019)
Bridge positions count the residues as written; N and C are the ends. Square brackets hold non-standard residues; d marks the D form. Peptide text beside a SMILES is read from it. R8 = C=CCCCCCC[C@@](C)(N)C(=O)O; S5 = C=CCCC[C@](C)(N)C(=O)O; Nle = CCCC[C@H](N)C(=O)O; Abu = CC[C@H](N)C(=O)O

Legend:
[1] = target: T1, flag-tagged HIF1α (AA 786-826) / His6-tagged p300 (AA 323-423) complex (Homo sapiens, UniProt Q09472); test: HIF1α p300 displacement assay (TR FRET, +CHAPS); format: binding; conditions: read-out: IC50 (nM) (HIF1α_p300 Displacement + CHAPS)
T1 construct: His6-tagged p300 (AA 323-423); made in house; host or cells: E. coli (pETDuet vector)
In short: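 The co-expressed flag-HIF1α (786-826)/His6-p300 (323-423) complex, purified from E. coli with 0.1 mM ZnSO4, was used at 300 nM final with competitor peptides for 1 h at room temperature. Buffer was 150 mM NaCl, 20 mM HEPES pH 7.4, 7.5 mM CHAPS and 1 mM DTT. Anti-Flag-K (0.5 μM) and anti-His-D2 (4 nM) were then added for 2 h, and IC50s were fitted from the TR-FRET ratio.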

HRE-bla ME-180 cells [2] = test: Reporter gene assay (HRE-bla ME-180 HIF reporter, GeneBLAzer); format: cell-based, human; conditions: for EC50: 24 hour normoxia
In short: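 A FRET β-lactamase readout of HIF transcription was used. After compound treatment in 0.3% DMSO/media under normoxic conditions, 20 μl of 6× LiveBLAzer-FRET B/G (CCF4-AM) substrate was added. Plates sat 3 hr at room temperature in the dark and were read at 409 Ex/460Em and 409Ex/530Em on a Synergy 2. Inhibition was compared against DMSO vehicle controls, with chetomin as positive control.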

HRE-bla ME-180 cells [3] = test: Cell proliferation assay (viability, MTT, 1% FBS); format: cell-based, human
In short: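 ME-180 cells (2×10^4/well) in Opti-MEM with 1% FBS were pretreated 16 h under normoxia (21% O2), vehicle 0.5% DMSO final. Incubation then continued under normoxia or hypoxia (1% O2); viable cells quantified by MTT-type CellTiter 96 assay.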

Row | Structure (SMILES) | IC50 [1] | 18 h Avg % max inhibition at top conc (HIF Rptr-24 hrs normoxia) (μM) (HRE-bla ME-180 cells [2]) | EC50 (HRE-bla ME-180 cells [2]) | Viability 1% FBS AVG (MTT V3-24 hr Normoxia) (μM) (HRE-bla ME-180 cells [3])
1 | CCCC[C@@H]1NC(=O)[C@H](CC(C)C)NC(=O)[C@H](C(C)C)NC(=O)[C@@](C)(NC(=O)[C@H](CCC(=O)O)NC(=O)[C@H](CC(=O)O)NC(=O)[C@@H](NC(=O)[C@H](Cc2ccccc2)NC(C)=O)[C@@H](C)CC)CCCC=CCCCC2(CCCC=CCCC[C@](C)(C(=O)N[C@@H](CCCNC(=N)N)C(=O)N[C@@H](C)C(=O)N[C@@H](CC(C)C)C(N)=O)NC(=O)[C@H]([C@@H](C)CC)NC(=O)[C@H](C(C)C)NC(=O)[C@H](CC(C)C)NC2=O)NC1=O (stereo partly shown) [SP-213] | > 700 nM | + (<10: +) | > 30 µM | ++++ (≥30: ++++)
2 | CC[C@@H]1NC(=O)[C@H](CC(=O)O)NC(=O)[C@H](Cc2ccc(O)cc2)NC(=O)[C@@](C)(NC(=O)[C@@H](NC(=O)[C@H](CC(C)C)NC(=O)[C@H](CCC(N)=O)NC(=O)[C@@H]2CCCN2C(=O)[C@H](CC(C)C)NC(=O)[C@H](CCC(=O)O)NC(=O)[C@H](CCCCN)NC(=O)[C@@H](NC(=O)[C@H](CCCNC(=N)N)NC(=O)[C@H](CC(=O)O)NC(=O)[C@H](CC(C)C)NC(=O)CNC(=O)[C@H](CCSC)NC(=O)[C@]2(C)CCCC=CCCC[C@](C)(NC(=O)[C@H](CCSC)NC(=O)[C@H](CC(C)C)NC(=O)[C@@H](NC(=O)[C@H](CCC(=O)O)NC(=O)[C@H](CCC(=O)O)NC(=O)[C@H](CC(=O)O)NC(=O)[C@@H](NC(=O)[C@H](Cc3ccccc3)NC(C)=O)[C@@H](C)CC)C(C)C)C(=O)N[C@@H](CC(C)C)C(=O)N[C@@H](C(C)C)C(=O)N[C@@H]([C@@H](C)CC)C(=O)N2)[C@@H](C)CC)[C@@H](C)O)CCCC=CCCC[C@@](C)(C(=O)N[C@H](C(=O)N[C@@H](CC(N)=O)C(=O)N[C@@H](C)C(N)=O)C(C)C)NC1=O [SP-321] (Ac-FIDEEVLM[S5]LVI[S5]MGLDRIKELPQLT[S5]YD[Abu][S5]VNA-NH2; staple 9-13, 27-31) | 200 to 400 nM | +++ (≤25 but <50: +++) | 15 to 30 µM | ++++ (≥30: ++++)
3 | CCCC[C@H](NC(=O)[C@H](CCC(=O)O)NC(=O)[C@]1(C)CCCC=CCCCCCC[C@@](C)(NC(=O)[C@H](CCC(=O)O)NC(=O)[C@H](CC(=O)O)NC(=O)[C@@H](NC(=O)[C@H](CC(N)=O)NC(=O)[C@@H](NC(=O)[C@H](CCC(N)=O)NC(=O)[C@H](CC(=O)O)NC(=O)[C@]2(C)CCCC=CCCC[C@](C)(NC(=O)[C@H](CCC(=O)O)NC(=O)[C@H](CCC(=O)O)NC(=O)CNC(=O)[C@H](CCC(N)=O)NC(=O)[C@H](CC(C)C)NC(=O)[C@H](CC(C)C)NC(C)=O)C(=O)N[C@@H](CC(C)C)C(=O)N[C@@H](CCCNC(=N)N)C(=O)N[C@@H](C)C(=O)N2)C(C)C)[C@@H](C)CC)C(=O)N[C@@H](C(C)C)C(=O)N[C@@H](CC(C)C)C(=O)N[C@@H](CCCC)C(=O)N[C@@H](CO)C(=O)N[C@@H](CC(C)C)C(=O)N[C@@H](C(C)C)C(=O)N1)C(=O)NCC(N)=O [SP-344] (Ac-LLQGEE[S5]LRA[S5]DQVNIDE[R8]VL[Nle]SLV[S5]E[Nle]G-NH2; staple 7-11, 19-26) | 400 to 700 nM | + (<10: +) | > 30 µM | ++++ (≥30: ++++)
4 | CCCC[C@H](NC(=O)[C@H](CC(C)C)NC(=O)[C@@H](NC(=O)[C@H](CCC(=O)O)NC(=O)[C@H](CCC(=O)O)NC(=O)[C@H](CC(=O)O)NC(=O)[C@@H](NC(=O)[C@H](CC(N)=O)NC(=O)[C@@H](NC(=O)[C@H](CCC(N)=O)NC(=O)[C@H](CC(=O)O)NC(=O)[C@H](CC(C)C)NC(=O)[C@]1(C)CCCC=CCCC[C@](C)(NC(=O)[C@H](CCC(=O)O)NC(=O)CNC(=O)[C@H](CCC(N)=O)NC(=O)[C@H](CC(C)C)NC(=O)[C@H](CC(C)C)NC(C)=O)C(=O)N[C@@H](CC(C)C)C(=O)N[C@@H](CC(C)C)C(=O)N[C@@H](CCCNC(=N)N)C(=O)N1)C(C)C)[C@@H](C)CC)C(C)C)C(=O)N[C@@]1(C)CCCC=CCCC[C@@](C)(C(=O)N[C@@H](CCCC)C(=O)NCC(N)=O)NC(=O)[C@H]([C@@H](C)CC)NC(=O)[C@H](C(C)C)NC(=O)[C@H](CC(C)C)NC1=O [SP-307] (Ac-LLQGE[S5]LLR[S5]LDQVNIDEEVL[Nle][S5]LVI[S5][Nle]G-NH2; staple 6-10, 23-27) | > 700 nM | +++ (≤25 but <50: +++) | > 30 µM | ++++ (≥30: ++++)
